Measured values taken from patent publication US7148204B2, “Antisense modulation of bcl-x expression” (Isis Pharmaceuticala, Inc., priority 1998, dated 2006).

Experiments:
CEM cells = assay: Combination index (median-effect) of bcl-x antisense with chemotherapeutic drugs in CEM cells; type: cell-based, human
Text: To determine if synergy existed between the bcl-x and the chemotherapeutic drugs dexamethasone or doxorubicin, the median-effect principle of Chou (“The median-effect principle and the combination index for quantification of synergism and antagonism. In Synergism and Antagonism in Chemotherapy, T.-C. Chou and D. Rideout, eds., Academic Press, New York, pp. 61–102) was used to determine dose-effect parameters for the drugs individually and for the combinations of bcl-x antisense plus dexamethasone or bcl-x antisense plus doxorubicin. This method analyzes the shape of the drug dose-response curves for each drug, combination of drugs and quantitates synergism/antagonism at different concentrations. Median effect computer software (CalcuSyn for Windows, Biosoft, Ferguson, Mo.) was used to generate the combination index (CI), where a CI value of <1, =1, >1 indicates synergism (i.e., the effect of drug combination is greater than anticipated from the additive effect of the individual agents), additive effect, and antagonism, respectively.
Treatment of CEM cells with bcl-x antisense oligonucleotide makes the cells more sensitive to killing by doxorubicin or dexamethasone (FIGS. 9A–B). These, or similar drugs, are used frequently for acute lymphocytic leukemia treatment. The use of any of these therapeutic agents in combination with one or more antisense oligonucleotides to bcl-x is within the scope of the present invention. For these experiments, the CEM cells were electroporated with either the bcl-x antisense or control oligonucleotides, cultured for one day, then treated with the indicated concentrations of drug. […] A CI of <0.3 is classified as a strong degree of synergism, and 0.3 to 0.7 is classified as synergism. […] For the doses tested of doxorubicin, the CI ranged from 0.7 to 1.3.

bcl-x protein = assay: Western blot analysis of bcl-x protein levels in A549; type: cell-based, human
Description: Western blot analysis (immunoblot analysis) was carried out using standard methods. Generally, cells were harvested 16–20 hours after oligonucleotide treatment, washed once with PBS, suspended in Laemmli buffer (100 μl/well), boiled for 5 minutes and loaded on a 16% SDS-PAGE gel. Gels were run for 1.5 hours at 150 V, and transferred to membrane for western blotting. Appropriate primary antibody directed to bcl-x was used, with a radiolabelled or fluorescently labeled secondary antibody directed against the primary antibody species. Bands were visualized using a PHOSPHORIMAGER™ (Molecular Dynamics, Sunnyvale Calif.).
ISIS 15999 and 16009 were tested for the ability to reduce bcl-x protein levels in A549.

For “TCCCGGTTGCTCTGAGACAT (5-10-5 2'-MOE gapmer, phosphorothioate, further chemistry not given here) [ISIS 15999]”, the “combination index (CI)” value (CEM cells; with dexamethasone, three highest doses) was less than 0.3, the “combination index (CI)” value (CEM cells; with dexamethasone, two lower doses) was 0.3 to 0.4 and the “combination index (CI)” value (CEM cells; with doxorubicin, doses tested) was 0.7 to 1.3. The bcl-x protein levels (bcl-x protein) was “reduce bcl-x protein levels in a dose-dependent manner”.
